Source: paper PMC7269513 (Antimicrobial Agents and Chemotherapy, 2020)
Where “and” joins values, the source holds several entries; their conditions need not be identical. Equal entries are not always repeated. Where two headings read alike, the source gives them in different places.

Key:
[1] = target: T1, VIM-1 (Pseudomonas aeruginosa, UniProt A0A0F7KYQ8); assay: IC50 of beta-lactamase inhibition (nitrocefin hydrolysis); type: biochemical
[2] = target: T2, NDM-1 (Klebsiella pneumoniae, UniProt C7C422); assay: biochemical
[3] = target: T3, IMP-1 (Serratia marcescens, UniProt P52699); assay: IC50 of beta-lactamase inhibition (imipenem hydrolysis); type: biochemical
[4] = target: CTX-M-14 (Escherichia coli, UniProt Q9L5C7); assay: IC50 of beta-lactamase inhibition (nitrocefin hydrolysis); type: biochemical; conditions: read-out: IC50 (nM) of drug
[5] = target: T4, CTX-M-15 (Escherichia coli, UniProt Q9EXV5); assay: as above; type: biochemical; conditions: read-out: IC50 (nM) of drug
Procedure: (§1) […]; Initial rates of reaction were calculated and exported to Prism software to calculate IC50 values using the “dose-response—inhibition, variable slope (four parameters)” equation. Ki values were calculated by the method of Waley ([31]). This method was previously used to calculate Ki values for boronic fast-on–fast-off BLIs.

[6] = target: T5, P99 (Enterobacter cloacae, UniProt P05364); assay: as above; type: biochemical
Procedure: as §1

[7] = target: T6, SHV-12 (Klebsiella pneumoniae, UniProt P0AD64, E235K/G234S/L31Q); assay: as above; type: biochemical; conditions: read-out: IC50 (nM) of drug
[8] = target: T7, OXA-48 (Klebsiella pneumoniae, UniProt Q6XEC0)
[9] = target: T8, OXA-58 (Acinetobacter baumannii, UniProt Q2TR58)
[10] = target: T9, KPC-2 (Klebsiella pneumoniae, UniProt Q9F663); type: biochemical
[11] = target: T1, VIM-1
[12] = target: T2, NDM-1; type: biochemical
[13] = target: IMP-26 (Pseudomonas aeruginosa, UniProt D0V558); type: biochemical; conditions: hydrolysis by IMP-26
[14] = target: T3, IMP-1
[15] = target: T10, OXA-23 (Acinetobacter baumannii, UniProt Q9L4P2)
[16] = target: T11, OXA-24 (Acinetobacter baumannii, UniProt Q8RLA6)
[17] = target: T12, KPC-3 (Klebsiella pneumoniae, UniProt Q9F663, H272Y); type: biochemical; conditions: hydrolysis by KPC-3
[18] = target: T6, SHV-12; type: biochemical
[19] = target: TEM-10 (Escherichia coli, UniProt P62593, E237K/R162S); conditions: hydrolysis by TEM-10
[20] = target: T13, TEM-43 (Escherichia coli, UniProt P62593, E102K/M180T/R162H, species not given); type: biochemical; conditions: hydrolysis by TEM-43
[21] = target: T14, BKC-1 (Klebsiella pneumoniae, UniProt A0A0F6QEY8); assay: Km and kcat of nitrocefin or imipenem hydrolysis; type: biochemical; conditions: hydrolysis by BKC-1
[22] = target: T15, FRI-1 (Enterobacter cloacae, UniProt A0A0M5L4T8); assay: Km and kcat of nitrocefin or imipenem hydrolysis; type: biochemical; conditions: hydrolysis by FRI-1
[23] = target: T16, SME-2 (Serratia marcescens, UniProt P52682, V207Q); type: biochemical
[24] = target: T10, OXA-23; assay: IC50 of beta-lactamase inhibition (nitrocefin hydrolysis); type: biochemical; conditions: read-out: IC50 (nM) of drug
[25] = target: T7, OXA-48; assay: koff of enzyme activity recovery, jump dilution method; type: biochemical, Enterobacteriaceae; conditions: derived from the ratio of koff and k2/K
Procedure: (§2) Enzyme at a 1 μM concentration in buffer A was mixed with BLI at an 8-fold-higher concentration than its stoichiometry ratio (determined in preliminary stoichiometry experiments). […].

[26] = target: T10, OXA-23; assay: Stoichiometry of beta-lactamase inhibition; type: biochemical; conditions: minimal BLI/enzyme ratio reducing enzyme activity by at least 90%
Procedure: (§3) […]. Stoichiometry of inhibition was determined as a minimal BLI/enzyme ratio reducing enzyme activity by at least 90%.

[27] = target: T11, OXA-24; assay: Stoichiometry of beta-lactamase inhibition; type: biochemical; conditions: minimal BLI/enzyme ratio reducing enzyme activity by at least 90%
Procedure: as §3

[28] = target: T4, CTX-M-15; assay: Stoichiometry of beta-lactamase inhibition; type: biochemical; conditions: minimal BLI/enzyme ratio reducing enzyme activity by at least 90%
Procedure: as §3

[29] = target: T9, KPC-2; assay: Stoichiometry of beta-lactamase inhibition; type: biochemical; conditions: minimal BLI/enzyme ratio reducing enzyme activity by at least 90%
Procedure: as §3

[30] = target: T8, OXA-58; assay: Stoichiometry of beta-lactamase inhibition; type: biochemical; conditions: minimal BLI/enzyme ratio reducing enzyme activity by at least 90%
Procedure: as §3

[31] = target: T7, OXA-48; assay: Stoichiometry of beta-lactamase inhibition; type: biochemical; conditions: minimal BLI/enzyme ratio reducing enzyme activity by at least 90%
Procedure: as §3

[32] = target: T5, P99; assay: Stoichiometry of beta-lactamase inhibition; type: biochemical; conditions: minimal BLI/enzyme ratio reducing enzyme activity by at least 90%
Procedure: as §3

[33] = target: T10, OXA-23; assay: koff of enzyme activity recovery, jump dilution method; type: biochemical; conditions: derived from the ratio of koff and k2/K
Procedure: as §2

[34] = target: T11, OXA-24; assay: as above; type: biochemical; conditions: derived from the ratio of koff and k2/K
Procedure: as §2

[35] = target: T4, CTX-M-15; assay: as above; type: biochemical; conditions: derived from the ratio of koff and k2/K
Procedure: as §2

[36] = target: T16, SME-2; assay: as above; type: biochemical; conditions: derived from the ratio of koff and k2/K
Procedure: as §2

[37] = target: T12, KPC-3; assay: as above; type: biochemical; conditions: derived from the ratio of koff and k2/K
Procedure: as §2

[38] = target: T9, KPC-2; assay: as above; type: biochemical; conditions: derived from the ratio of koff and k2/K
Procedure: as §2

[39] = target: T8, OXA-58; assay: as above; type: biochemical; conditions: derived from the ratio of koff and k2/K
Procedure: as §2

[40] = target: T5, P99; assay: as above; type: biochemical; conditions: derived from the ratio of koff and k2/K
Procedure: as §2

[41] = system: strain producing cloned L1 from Stenotrophomonas maltophilia; conditions: strain producing cloned L1 (B3 subclass MBL); cited from earlier work
[42] = target: T6, SHV-12; assay: biochemical; conditions: derived from the ratio of koff and k2/K
[43] = target: T7, OXA-48; assay: IC50 of beta-lactamase inhibition (nitrocefin hydrolysis); type: biochemical, Enterobacteriaceae; conditions: read-out: IC50 (nM) of drug
[44] = target: T14, BKC-1; assay: Stoichiometry of beta-lactamase inhibition; type: biochemical; conditions: minimal BLI/enzyme ratio reducing enzyme activity by at least 90%
Procedure: (§4) Purified enzyme at 1 μM concentration in buffer A was mixed with BLI at a BLI/enzyme ratio varying from 128 to 0.0625. […]. Stoichiometry of inhibition was determined as a minimal BLI/enzyme ratio reducing enzyme activity by at least 90%.

[45] = target: T6, SHV-12; assay: Stoichiometry of beta-lactamase inhibition; type: biochemical; conditions: minimal BLI/enzyme ratio reducing enzyme activity by at least 90%
Procedure: as §4

[46] = target: T16, SME-2; assay: Stoichiometry of beta-lactamase inhibition; type: biochemical; conditions: minimal BLI/enzyme ratio reducing enzyme activity by at least 90%
Procedure: as §4

[47] = target: T12, KPC-3; assay: Stoichiometry of beta-lactamase inhibition; type: biochemical; conditions: minimal BLI/enzyme ratio reducing enzyme activity by at least 90%
Procedure: as §4

[48] = target: T13, TEM-43; assay: Stoichiometry of beta-lactamase inhibition; type: biochemical; conditions: minimal BLI/enzyme ratio reducing enzyme activity by at least 90%
Procedure: as §4

[49] = target: T15, FRI-1; assay: Stoichiometry of beta-lactamase inhibition; type: biochemical; conditions: minimal BLI/enzyme ratio reducing enzyme activity by at least 90%
Procedure: as §4

[50] = target: T9, KPC-2; assay: IC50 of beta-lactamase inhibition (nitrocefin hydrolysis); type: biochemical; conditions: KPC-2, class A; substrate nitrocefin; 10 min preincubation at 37°C; read-out: IC50 (nM) of drug
[51] = target: T1, VIM-1; assay: Ki of competitive MBL inhibition (method of Waley); type: biochemical
Procedure: as §1

[52] = target: T3, IMP-1; assay: Ki of competitive MBL inhibition (method of Waley); type: biochemical
Procedure: as §1

[53] = P99, class C, substrate nitrocefin, 10 min preincubation at 37°C, read-out: IC50 (nM) of drug
[54] = Kd values for MBLs were based on Kis

Compound `NC(=O)[C@@H]1CC[C@@H]2CN1C(=O)N2OS(=O)(=O)O` [Avibactam, avibactam] has an IC50 ([1]; IC50 (nM) of drug) of over 160000 nM, an IC50 [2] of over 160 µM and an IC50 [3] of over 160 µM. The IC50 [4] was 1.4 ± 0.4 nM, the IC50 [5] was 0.56 ± 0.25 nM and the IC50 ([6]; IC50 (nM) of drug) was 26 ± 7 nM. The IC50 [7] was 0.61 ± 0.19 nM.

Work on `C[C@@H](O)[C@H]1C(=O)N2C(C(=O)O)=C(SCCN=CN)C[C@H]12` [Imipenem, imipenem] yielded a Km [8] of 1500 nM, a kcat [8] of 1.7 s⁻¹ and a Km [9] of 1300 nM. The kcat [9] was 0.66 s⁻¹, the Km [10] was 70 µM and the kcat [10] was 39 s⁻¹. It also gave a Km [11] of 13 µM, a kcat [11] of 15 s⁻¹ and a Km [12] of 206 µM. The kcat [12] was 96 s⁻¹, the kcat [13] was 35 s⁻¹ and the Km [14] was 66 µM. The Km [15] was 6.6 µM, the kcat [15] was 0.7 s⁻¹ and the Km [16] was 1200 nM. For the same compound, the kcat [16] was 1.9 s⁻¹.

`O=C(Cc1cccs1)N[C@@H]1C(=O)N2C(C(=O)O)=C(/C=C/c3ccc([N+](=O)[O-])cc3[N+](=O)[O-])CS[C@H]12` [Nitrocefin, nitrocefin] gave a kcat [17] of 182 s⁻¹, a Km [18] of 5.5 µM and a kcat ([18]; hydrolysis by SHV-12) of 73 s⁻¹. It also gave a kcat [19] of 18 s⁻¹, a Km [10] of 49 µM and a kcat ([10]; hydrolysis by KPC-2) of 206 s⁻¹. The kcat [20] was 175 s⁻¹, the kcat [21] was 721 s⁻¹ and the Km [12] was 1.6 µM. It also gave a kcat ([12]; hydrolysis by NDM-1) of 27 s⁻¹, a kcat [22] of 176 s⁻¹ and a kcat [13] of 325 s⁻¹. For the same compound, the Km [23] was 59 µM and the kcat ([23]; hydrolysis by SME-2) was 352 s⁻¹.

In the case of `O=C(O)c1c(F)ccc2c1OB(O)[C@@H]1C[C@H]21` [QPX7728], the IC50 ([1]; read-out: IC50 (nM) of drug) is reported as 14 ± 4 nM, the IC50 [24] is reported as 1 nM and 1.2 nM and the Kd [25] is reported as 0.13 ± 0.01 nM. It also gave an IC50 [3] of 0.61 ± 0.07 µM, an IC50 [4] of 0.94 ± 0.2 nM and a Stoichiometry [26] of 2. It also gave a Stoichiometry [27] of 1, a Stoichiometry [28] of 1 and a Stoichiometry [29] of 1. It also gave a Stoichiometry [30] of 1, a Stoichiometry [31] of 1 and a Stoichiometry [32] of 1. The Kd [33] was 1.6 ± 0.2 nM, the Kd [34] was 0.58 ± 0.1 nM and the Kd [35] was 0.11 ± 0.02 nM. For the same compound, the Kd [36] was 0.15 ± 0.02 nM, the Kd [37] was 0.31 ± 0.06 nM and the Kd [38] was 0.25 ± 0.03 nM. The Kd [39] was 3.2 ± 0.3 nM, the Kd [40] was 0.53 ± 0.06 nM and the “ability to reduce MICs of meropenem and ceftazidime” value [41] was “inability”. For the same compound, the Kd [42] was 28 ± 4 nM, the IC50 [43] was 1 nM and 1.1 nM and the IC50 [5] was 1.2 ± 0.1 nM. The IC50 [6, 53] was ~22 nM and 22 nM, the Stoichiometry [44] was 1 and the Stoichiometry [45] was 1. For the same compound, the Stoichiometry [46] was 1, the Stoichiometry [47] was 1 and the Stoichiometry [48] was 1. The Stoichiometry [49] was 1, the IC50 [7] was 1.9 ± 0.6 nM and the IC50 [50] was 2.9 ± 0.4 nM. It also gave a Kd [51, 54] of 7.5 ± 2.1 nM, a Ki ([51]; competitive, fast-on–fast-off) of 7.5 ± 2.1 nM and a Kd [52, 54] of 240 ± 30 nM. For the same compound, the Ki ([52]; competitive, fast-on–fast-off) was 240 ± 30 nM.

Compound `O=C(NC1CCNCC1)[C@@H]1CC[C@@H]2CN1C(=O)N2OS(=O)(=O)O` [Relebactam, relebactam] has an IC50 ([1]; IC50 (nM) of drug) of over 160000 nM, an IC50 [2] of over 160 µM and an IC50 [3] of over 160 µM. The IC50 [4] was 34 ± 10 nM, the IC50 [6, 53] was 36 ± 4 nM and the IC50 [7] was 330 ± 50 nM.

With `O=C(O)C[C@@H]1CC[C@H](NC(=O)Cc2cccs2)B(O)O1` [Vaborbactam, vaborbactam] the IC50 ([1]; IC50 (nM) of drug) was over 160000 nM, the IC50 [24] was 120000 nM and the IC50 [2] was over 160 µM. For the same compound, the IC50 [3] was over 160 µM, the IC50 [4] was 110 ± 40 nM and the IC50 [43] was 6900 nM. For the same compound, the IC50 [5] was 92 ± 13 nM, the IC50 [6, 53] was 88 ± 38 nM and the IC50 [7] was 56 ± 11 nM. For the same compound, the IC50 [50] was 110 ± 30 nM.
